# Test results from patent US20230399287A1, “NOVEL COMPOUNDS” (Sitryx Therapeutics Limited, priority 2020, published 2023).
# What was measured:
# IL-6 = test: THP-1 AlphaLISA IL-6 cytokine assay; assay type: cell-based; conditions: Homo sapiens, THP-1, differentiated THP-1 cells, LPS 24 hr then Nigericin 1 hour
# Summary of the method: (§1)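 THP-1 cells differentiated with PMA for 72 h, pre-incubated with compound for 30 min, primed with LPS for 24 h, then given nigericin for 1 h at 37 °C. IL-1β and IL-6 in supernatants were read by AlphaLISA. % inhibition was set against ±LPS controls and IC50 taken from concentration–response curves.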
# hepatocytes [1] = test: Hepatocyte stability assay (human); assay type: in vitro ADME; conditions: 10 μM compound, 60 min
# Summary of the method: (§2)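 Cryopreserved human or mouse hepatocytes (0.5×10^6 cells/mL in Leibovitz buffer) were incubated with 10 μM compound (0.1% DMSO) at 37° C in duplicate, alongside a buffer-only control. Samples taken from 0 to 60 min were analysed by LC-MS/MS. Half-life and Clint (μL min^−1 10^−6 cells) came from the ln % remaining versus time slope.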
# [2] = Hepatocyte stability assay (human); assay type: in vitro ADME; conditions: human, cryopreserved hepatocytes, 10 μM compound, 60 min, read-out: T½
# Summary of the method: as §2
# hepatocytes [3] = test: Hepatocyte stability assay (mouse); assay type: in vitro ADME; conditions: 10 μM compound, 60 min
# Summary of the method: as §2
# [4] = Hepatocyte stability assay (mouse); assay type: in vitro ADME; conditions: mouse, cryopreserved hepatocytes, 10 μM compound, 60 min, read-out: T½
# Summary of the method: as §2
# IL-1β = test: THP-1 AlphaLISA IL-1β cytokine assay; assay type: cell-based; conditions: Homo sapiens, THP-1, differentiated THP-1 cells, LPS 24 hr then Nigericin 1 hour
# Summary of the method: as §1
# NRF2 = NRF2 +/- GSH activation assay (DiscoverX PathHunter NRF2 translocation kit); assay type: cell-based; conditions: for Emax: normalised to dimethyl fumarate high control; for EC50: Homo sapiens, U2OS, U2OS PathHunter cells
smiles,measurement,setting,value
"C=C(CC(=O)OC1(c2ccc(C(F)(F)F)cc2)CCCC1)C(=O)O [Example 7, 2-methylene-4-oxo-4-((1-(4-(trifluoromethyl)phenyl)cyclopentyl)oxy)butanoic acid]",IC50,IL-6,> 100 µM
same,Clint,hepatocytes [1],20 μL min^−1 10^−6 cells
same,half-life at 10 μM,[2],1.1 h
same,Clint,hepatocytes [3],14 μL min^−1 10^−6 cells
same,half-life at 10 μM,[4],1.97 h
same,IC50,IL-1β,3.7 µM
same,Emax,NRF2; +GSH,0%
same,EC50,NRF2; +GSH,> 100 µM
same,EC50,NRF2; −GSH,> 100 µM
same,Emax,NRF2; −GSH,6%
"C=C(CC(=O)OC1(c2ccc(C(F)(F)F)c(Cl)c2)CCC1)C(=O)O [Example 12, 4-(1-(3-chloro-4-(trifluoromethyl)phenyl)cyclobutoxy)-2-methylene-4-oxobutanoic acid]",IC50,IL-6,82.6 µM
same,Clint,hepatocytes [1],46 μL min^−1 10^−6 cells
same,half-life at 10 μM,[2],0.617 h
same,Clint,hepatocytes [3],42 μL min^−1 10^−6 cells
same,half-life at 10 μM,[4],0.75 h
same,IC50,IL-1β,4.5 µM
same,Emax,NRF2; +GSH,46%
same,EC50,NRF2; +GSH,> 100 µM
same,EC50,NRF2; −GSH,81.6 µM
same,Emax,NRF2; −GSH,66%
"C=C(CC(=O)OC1(c2ccc(C(F)(F)F)cn2)CC1)C(=O)O [Example 58, 2-methylene-4-oxo-4-(1-(5-(trifluoromethyl)pyridin-2-yl)cyclopropoxy)butanoic acid]",IC50,IL-6,> 42.2 µM
same,Clint,hepatocytes [1],5 μL min^−1 10^−6 cells
same,half-life at 10 μM,[2],6.2 h
same,Clint,hepatocytes [3],5 μL min^−1 10^−6 cells
same,half-life at 10 μM,[4],5.45 h
same,IC50,IL-1β,3.2 µM
same,Emax,NRF2; +GSH,0%
same,EC50,NRF2; +GSH,> 100 µM
same,EC50,NRF2; −GSH,> 100 µM
same,Emax,NRF2; −GSH,1%
"C=C(CC(=O)OC1(c2ccc(C#CC(F)(F)F)cc2)CCC1)C(=O)O [Example 36, 2-methylene-4-oxo-4-(1-(4-(3,3,3-trifluoroprop-1-yn-1-yl)phenyl)cyclobutoxy)butanoic acid]",IC50,IL-6,5.6 µM
same,Clint,hepatocytes [1],12 μL min^−1 10^−6 cells
same,half-life at 10 μM,[2],1.87 h
same,Clint,hepatocytes [3],>460 μL min^−1 10^−6 cells
same,half-life at 10 μM,[4],< 0.05 h
same,IC50,IL-1β,> 31.6 µM
same,Emax,NRF2; +GSH,90%
same,EC50,NRF2; +GSH,8.6 µM
same,EC50,NRF2; −GSH,9 µM
same,Emax,NRF2; −GSH,116%
"C=C(CC(=O)OC1(c2ccc(C(F)(F)F)cc2)CSC1)C(=O)O [Example 40, 2-methylene-4-oxo-4-((3-(4-(trifluoromethyl)phenyl)thietan-3-yl)oxy)butanoic acid]",IC50,IL-6,> 100 µM
same,Clint,hepatocytes [1],12 μL min^−1 10^−6 cells
same,half-life at 10 μM,[2],1.68 h
same,Clint,hepatocytes [3],25 μL min^−1 10^−6 cells
same,half-life at 10 μM,[4],1.48 h
same,IC50,IL-1β,0.8 µM
same,Emax,NRF2; +GSH,9%
same,EC50,NRF2; +GSH,> 100 µM
same,EC50,NRF2; −GSH,1.7 µM
same,Emax,NRF2; −GSH,61%
"C=C(CC(=O)OC1(c2ccc(Cl)cc2)CCC1)C(=O)O [Example 8, 4-(1-(4-chlorophenyl)cyclobutoxy)-2-methylene-4-oxobutanoic acid]",IC50,IL-6,64.5 µM
same,Clint,hepatocytes [1],11 μL min^−1 10^−6 cells
same,half-life at 10 μM,[2],2.07 h
same,Clint,hepatocytes [3],26 μL min^−1 10^−6 cells
same,half-life at 10 μM,[4],1.08 h
same,IC50,IL-1β,2.6 µM
same,Emax,NRF2; +GSH,0%
same,EC50,NRF2; +GSH,> 100 µM
same,EC50,NRF2; −GSH,> 100 µM
same,Emax,NRF2; −GSH,24%
"C/C(=C\C(=O)OC1(c2ccc(C(F)(F)F)cc2)CCC1)C(=O)O [Example 21, (E)-2-methyl-4-oxo-4-(1-(4-(trifluoromethyl)phenyl)cyclobutoxy)but-2-enoic acid]",IC50,IL-6,49.7 µM
same,Clint,hepatocytes [1],31 μL min^−1 10^−6 cells
same,half-life at 10 μM,[2],0.917 h
same,Clint,hepatocytes [3],71 μL min^−1 10^−6 cells
same,half-life at 10 μM,[4],0.45 h
same,IC50,IL-1β,7.3 µM
same,Emax,NRF2; +GSH,4%
same,EC50,NRF2; +GSH,> 100 µM
same,EC50,NRF2; −GSH,> 100 µM
same,Emax,NRF2; −GSH,0%
